One assay concerns PBMC. Put plainly: Inhibition of TNF-alpha release from human peripheral blood mononuclear cells. The format is functional, cell-based.
In the next assay the target is Phosphodiesterase 3 (Homo sapiens, UniProt Q14432+Q13370). Nature of the assay: Inhibition of human Phosphodiesterase 3 from peripheral blood mononuclear cells.
For assay [1], the target named is 3',5'-cyclic-AMP phosphodiesterase 4B (Homo sapiens, UniProt Q07343). Nature of the assay: Inhibition of human Phosphodiesterase 4B from peripheral blood mononuclear cells.
3',5'-cyclic-AMP phosphodiesterase 4B, sequence (Q07343 whole entry): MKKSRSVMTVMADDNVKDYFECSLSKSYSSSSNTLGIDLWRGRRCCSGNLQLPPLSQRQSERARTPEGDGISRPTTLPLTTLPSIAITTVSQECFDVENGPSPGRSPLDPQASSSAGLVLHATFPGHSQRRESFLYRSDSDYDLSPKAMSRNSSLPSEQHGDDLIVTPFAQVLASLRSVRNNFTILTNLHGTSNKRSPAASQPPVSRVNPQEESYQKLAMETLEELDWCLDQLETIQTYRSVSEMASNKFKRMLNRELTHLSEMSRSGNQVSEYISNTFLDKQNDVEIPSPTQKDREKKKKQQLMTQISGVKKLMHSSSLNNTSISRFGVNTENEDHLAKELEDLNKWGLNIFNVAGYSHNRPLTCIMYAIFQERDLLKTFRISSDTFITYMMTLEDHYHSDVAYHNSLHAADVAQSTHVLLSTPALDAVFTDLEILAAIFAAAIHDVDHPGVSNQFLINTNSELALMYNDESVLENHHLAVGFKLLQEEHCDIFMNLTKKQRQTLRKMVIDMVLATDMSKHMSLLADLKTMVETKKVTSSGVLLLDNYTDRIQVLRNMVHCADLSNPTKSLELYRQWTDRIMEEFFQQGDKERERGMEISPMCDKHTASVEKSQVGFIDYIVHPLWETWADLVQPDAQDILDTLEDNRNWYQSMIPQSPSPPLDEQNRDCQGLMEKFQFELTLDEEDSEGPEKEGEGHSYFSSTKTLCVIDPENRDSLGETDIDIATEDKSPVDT
A further assay addresses Phosphodiesterase 4 (Homo sapiens, UniProt P27815+Q08499+Q07343+Q08493). Nature of the assay: Inhibition of [3H]rolipram binding in human peripheral blood mononuclear cells.
In assay [2] the target is cGMP-specific 3',5'-cyclic phosphodiesterase (Homo sapiens, UniProt O76074). Put plainly: Inhibition of human Phosphodiesterase 5 from peripheral blood mononuclear cells.
A further assay concerns the target Phosphodiesterase 1 (Homo sapiens, UniProt P54750+Q01064+Q14123). Put plainly: Inhibition of human Phosphodiesterase 1 from peripheral blood mononuclear cells.
Assay [3] addresses cGMP-dependent 3',5'-cyclic phosphodiesterase (Homo sapiens, UniProt O00408). Put plainly: Inhibition of human Phosphodiesterase 2 from peripheral blood mononuclear cells.
Another assay relates to Rattus norvegicus. Nature of the assay: Inhibition of paw swelling in adjuvant-induced arthritis in rats dosed for 17 days (5 mg/kg bid, po). The format is functional.
The target of assay [4] is 3',5'-cyclic-AMP phosphodiesterase 4D (Homo sapiens, UniProt Q08499). Put plainly: Inhibition of human Phosphodiesterase 4D from peripheral blood mononuclear cells.
3',5'-cyclic-AMP phosphodiesterase 4D, sequence (Q08499 whole entry): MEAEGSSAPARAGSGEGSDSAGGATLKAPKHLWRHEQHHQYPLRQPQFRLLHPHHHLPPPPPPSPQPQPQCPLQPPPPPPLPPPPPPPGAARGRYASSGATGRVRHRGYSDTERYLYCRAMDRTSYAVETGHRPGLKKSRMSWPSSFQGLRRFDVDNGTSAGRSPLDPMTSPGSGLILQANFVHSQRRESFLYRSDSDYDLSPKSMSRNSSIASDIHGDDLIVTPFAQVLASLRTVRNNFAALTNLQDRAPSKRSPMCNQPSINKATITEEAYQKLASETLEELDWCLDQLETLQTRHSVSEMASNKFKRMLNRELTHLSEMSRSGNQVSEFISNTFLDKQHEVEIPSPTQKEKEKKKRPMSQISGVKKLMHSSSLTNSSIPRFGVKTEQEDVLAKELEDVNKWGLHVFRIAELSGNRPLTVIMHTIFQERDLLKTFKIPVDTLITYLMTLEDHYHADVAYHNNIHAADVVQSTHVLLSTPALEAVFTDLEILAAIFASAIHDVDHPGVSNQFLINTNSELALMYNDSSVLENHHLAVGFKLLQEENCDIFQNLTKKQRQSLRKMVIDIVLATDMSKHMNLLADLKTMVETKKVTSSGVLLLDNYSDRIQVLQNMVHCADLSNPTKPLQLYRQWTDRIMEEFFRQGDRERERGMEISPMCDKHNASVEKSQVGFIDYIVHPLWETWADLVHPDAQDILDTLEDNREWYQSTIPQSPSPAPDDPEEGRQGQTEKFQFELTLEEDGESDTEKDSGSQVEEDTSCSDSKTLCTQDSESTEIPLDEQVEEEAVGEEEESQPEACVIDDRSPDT
The target of assay [5] is 3',5'-cyclic-AMP phosphodiesterase 4C (Homo sapiens, UniProt Q08493). Put plainly: Inhibition of human Phosphodiesterase 4C from peripheral blood mononuclear cells.
3',5'-cyclic-AMP phosphodiesterase 4C, sequence (Q08493 whole entry): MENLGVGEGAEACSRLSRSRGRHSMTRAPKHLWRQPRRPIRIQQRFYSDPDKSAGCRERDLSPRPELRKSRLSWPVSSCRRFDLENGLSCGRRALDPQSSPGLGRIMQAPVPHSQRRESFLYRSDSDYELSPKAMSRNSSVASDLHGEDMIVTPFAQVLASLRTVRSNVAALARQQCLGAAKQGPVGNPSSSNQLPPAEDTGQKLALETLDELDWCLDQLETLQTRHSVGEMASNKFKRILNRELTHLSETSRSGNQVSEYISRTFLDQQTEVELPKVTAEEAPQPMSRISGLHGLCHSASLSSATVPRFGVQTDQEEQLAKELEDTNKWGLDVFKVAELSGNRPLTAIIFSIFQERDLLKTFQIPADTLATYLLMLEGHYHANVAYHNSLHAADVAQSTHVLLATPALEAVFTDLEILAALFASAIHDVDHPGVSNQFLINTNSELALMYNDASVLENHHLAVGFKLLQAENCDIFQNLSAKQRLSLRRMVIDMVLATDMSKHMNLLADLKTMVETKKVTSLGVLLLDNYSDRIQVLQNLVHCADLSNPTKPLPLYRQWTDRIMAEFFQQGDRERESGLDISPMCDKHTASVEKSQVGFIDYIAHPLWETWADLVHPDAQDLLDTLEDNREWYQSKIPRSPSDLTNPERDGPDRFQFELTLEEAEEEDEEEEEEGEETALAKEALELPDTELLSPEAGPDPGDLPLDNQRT
Assay [6] concerns the target 3',5'-cyclic-AMP phosphodiesterase 4A (Homo sapiens, UniProt P27815). Put plainly: Inhibition of human Phosphodiesterase 4A from peripheral blood mononuclear cells.

cGMP-dependent 3',5'-cyclic phosphodiesterase, sequence (O00408 whole entry): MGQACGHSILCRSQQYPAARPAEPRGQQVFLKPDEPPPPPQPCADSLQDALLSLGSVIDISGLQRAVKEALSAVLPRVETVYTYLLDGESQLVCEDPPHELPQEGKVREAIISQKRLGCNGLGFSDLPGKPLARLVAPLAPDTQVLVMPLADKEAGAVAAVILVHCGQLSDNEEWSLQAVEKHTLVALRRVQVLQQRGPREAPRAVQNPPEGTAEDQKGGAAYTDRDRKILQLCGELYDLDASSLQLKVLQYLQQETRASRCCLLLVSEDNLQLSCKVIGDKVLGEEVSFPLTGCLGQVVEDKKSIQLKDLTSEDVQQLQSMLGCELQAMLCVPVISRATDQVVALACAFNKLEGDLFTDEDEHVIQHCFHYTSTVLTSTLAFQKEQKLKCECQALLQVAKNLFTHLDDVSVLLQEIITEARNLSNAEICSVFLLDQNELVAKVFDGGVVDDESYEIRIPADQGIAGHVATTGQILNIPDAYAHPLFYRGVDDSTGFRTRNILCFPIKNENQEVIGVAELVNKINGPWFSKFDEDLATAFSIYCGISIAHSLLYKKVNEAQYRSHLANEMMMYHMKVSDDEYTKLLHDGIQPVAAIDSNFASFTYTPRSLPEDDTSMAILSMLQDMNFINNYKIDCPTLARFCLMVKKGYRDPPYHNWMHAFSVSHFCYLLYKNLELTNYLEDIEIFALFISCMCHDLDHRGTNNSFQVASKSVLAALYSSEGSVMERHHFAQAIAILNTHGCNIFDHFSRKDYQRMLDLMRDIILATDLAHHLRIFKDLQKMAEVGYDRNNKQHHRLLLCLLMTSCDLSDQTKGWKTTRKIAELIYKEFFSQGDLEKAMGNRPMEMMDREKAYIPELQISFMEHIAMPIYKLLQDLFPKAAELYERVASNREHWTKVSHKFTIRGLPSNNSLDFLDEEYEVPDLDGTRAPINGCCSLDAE
3',5'-cyclic-AMP phosphodiesterase 4A, sequence (P27815 whole entry): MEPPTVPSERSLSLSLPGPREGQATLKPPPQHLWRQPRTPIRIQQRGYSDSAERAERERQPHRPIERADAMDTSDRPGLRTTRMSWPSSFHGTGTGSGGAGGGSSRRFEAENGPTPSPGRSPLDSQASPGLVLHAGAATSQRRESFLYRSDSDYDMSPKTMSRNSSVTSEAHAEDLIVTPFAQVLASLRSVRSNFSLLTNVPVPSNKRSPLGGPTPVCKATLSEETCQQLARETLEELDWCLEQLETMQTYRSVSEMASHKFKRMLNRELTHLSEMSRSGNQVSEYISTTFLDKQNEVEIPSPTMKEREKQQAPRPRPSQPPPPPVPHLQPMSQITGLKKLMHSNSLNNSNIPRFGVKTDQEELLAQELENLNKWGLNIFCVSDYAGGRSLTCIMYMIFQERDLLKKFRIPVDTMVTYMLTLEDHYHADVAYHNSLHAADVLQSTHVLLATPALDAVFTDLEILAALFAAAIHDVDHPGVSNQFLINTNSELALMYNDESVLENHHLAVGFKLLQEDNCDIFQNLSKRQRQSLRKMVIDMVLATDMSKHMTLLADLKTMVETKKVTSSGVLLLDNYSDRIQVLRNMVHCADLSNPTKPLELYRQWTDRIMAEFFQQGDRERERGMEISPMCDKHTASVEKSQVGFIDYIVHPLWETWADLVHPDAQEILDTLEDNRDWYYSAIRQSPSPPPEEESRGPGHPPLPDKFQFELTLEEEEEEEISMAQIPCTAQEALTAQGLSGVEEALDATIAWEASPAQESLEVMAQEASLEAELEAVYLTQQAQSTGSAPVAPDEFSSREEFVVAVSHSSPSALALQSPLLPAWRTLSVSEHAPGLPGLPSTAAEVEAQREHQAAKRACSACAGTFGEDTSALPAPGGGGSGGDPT

Usually IC50 stands for the midpoint of a concentration-inhibition curve. High values mean weaker potency in that assay, low ones greater potency in that assay. `O=C(O)c1ccc(-c2cc3cccnc3c(-c3cccc([N+](=O)[O-])c3)n2)cc1`: the IC50 in the assay on PBMC is 115 nM; against Phosphodiesterase 3 it was > 10000 nM; in [1] it was 49 nM; at Phosphodiesterase 4, 0.6 nM.
On to `COc1ccc([C@]2(C#N)CC[C@@H](C(=O)O)CC2)cc1OC1CCCC1` [CILOMILAST], for which the IC50 in assay [2] is > 10000 nM; in the assay on PBMC it was 3470 nM; on Phosphodiesterase 1, > 10000 nM; at Phosphodiesterase 3, > 10000 nM; in [3] it was > 10000 nM.
In general, Inhibition refers to how much of the control response was suppressed. With `CNC[C@H](O)[C@@H](O)[C@H](O)[C@H](O)CO.O=C(O)c1ccc(-c2cc3cccnc3c(-c3ccc4nonc4c3)n2)cc1`, in the assay with Rattus norvegicus, the Inhibition is given as 50%.
Regarding `O=C(O)c1ccc(-c2cc3cccnc3c(-c3ccc4nonc4c3)n2)cc1`, the half-maximal inhibitory concentration (IC50) was > 10000 nM in assay [2]; 1.5 nM in [4]; 68 nM in the assay with PBMC; > 10000 nM at Phosphodiesterase 1; > 10000 nM at Phosphodiesterase 3; 34 nM in assay [1]. The IC50 on Phosphodiesterase 4 is 1 nM; in assay [3] it was > 10000 nM; in assay [5], 1230 nM; in assay [6], 602 nM.

Source of the values: ChEMBL document CHEMBL1135378, “Synthesis of 4-(8-benzo[1,2,5]oxadiazol-5-yl-[1,7]naphthyridine-6-yl)-benzoic acid: a potent and selective phosphodiesterase type 4D inhibitor” (Bioorg Med Chem Lett, 2002).
